From the NIST ThermoML archive (doi:10.1021/je200830j)

Columns and labels:
[1] = 101.33 kPa, Liquid; for mass density: Vibrating tube method; for viscosity: Vibrating wire viscometry
[2] = xn = mol fraction of the nth substance listed; details: 101 kPa, Liquid, Capillary tube (Ostwald / Ubbelohde) method

CCCCCCCCCCCCCC[P+](CCCCCC)(CCCCCC)CCCCCC.N#C[N-]C#N [tetradecyl(trihexyl)phosphonium dicyanamide]
[1]
Details | mass density [kg/m3] | viscosity [mPa·s]
290.66 K | 902.3 | –
293.14 K | – | 505.9
293.15 K | 900.9 | –
293.16 K | 900.9 | –
295.65 K | 899.5 | –
295.66 K | 899.5 | –
298.15 K | 898 | –
298.16 K | 898 | –
298.2 K | – | 378
300.65 K | 896.6 | –
300.66 K | 896.6 | –
303.15 K | 895.1 | –
303.16 K | 895.1 | –
303.18 K | – | 288
305.65 K | 893.7 | –
308.15 K | 892.3 | –
308.16 K | 892.3 | –
308.2 K | – | 219.9
310.65 K | 890.9 | –
310.66 K | 890.9 | –
313.15 K | 889.5 | –
313.16 K | 889.5 | –
313.18 K | – | 171.1
315.65 K | 888.1 | –
318.15 K | 886.7 | –
318.19 K | – | 134.4
320.65 K | 885.3 | –

CCCCCCCCCCCCCC[P+](CCCCCC)(CCCCCC)CCCCCC.N#C[N-]C#N [tetradecyl(trihexyl)phosphonium dicyanamide] + O
[2]
Details | viscosity [mPa·s]
298.17 K, x2 = 0.275 | 372.8
298.17 K, x2 = 0.4 | 362.7
303.11 K, x2 = 0.198 | 284.53
303.13 K, x2 = 0.275 | 282.44
308.09 K, x2 = 0.275 | 217.15
317.92 K, x2 = 0.198 | 135.23
